Where a name gives a salt, the structure may show the parent alone.
Columns and labels:
[1] = system: alkaline erosive keratitis; test: Effects on alkaline erosive keratitis (rabbit corneal alkaline erosion model, slit lamp scoring); type: in vivo
Method: (§1) The effect of Compound A when given as eye drops was investigated in a rabbit keratitis model using an endotoxin derived from Pseudomonas aeruginosa detected frequently in an ophthalmic infection as well as in a rabbit corneal alkaline erosion model.
(§2) Male Japanese albino rabbits each weighing about 2 to 2.5 kg purchased from FUKUZAKI rabbit-raising association were used. Each animal was maintained at a temperature of 24±4° C. and a humidity of 55±15%.
(§3) Compound A was given as a 1.0% Compound A eye drop formulation prepared by suspending Compound A in a formulation base (0.1% NaH2PO4, 0.1% polysorbate 80 and 0.9% NaCl, pH 5.0). As a positive control, a 0.1% betamethasone eye drop formulation (Rinderon™ solution, Sionogi) was used. In a control group, the formulation base was given.
16 Male Japanese albino rabbits each weighing 2 to 2.5 kg were used. The rabbits were divided into four groups each having 4 animals, which were anesthetized systemically by an intramuscular administration each of 1 ml/kg of an equal volume mixture of 5% ketamine hydrochloride and 2% xylazine hydrochloride and also locally by an instillation of oxybuprocaine hydrochloride. A filter paper whose diameter was 10 mm and which had been immersed in 2N NaOH was brought into contact with the center of the right cornea of a rabbit for 1 minute to establish an alkaline erosion, and then the eye was rinsed immediately with 10 mL or more of physiological saline. The depth of the corneal ulcer and the vascularization were observed using a slit lamp every 5 days over a period from 5 days after the alkaline erosion through the 30th day, and scored in accordance with the criteria shown in Table 1. Each test substance was started to be instilled immediately after the alkaline erosion, and then given 4 times a day in the volume of 20 μl every 2 hours.
(§4) Rabbit Keratitis Scoring Criteria
(§5) Corneal opacity^remarks 1)
(§6) * Vascularization^remarks 1)
(§7) 2: ⅔ or more of corneal circumference Remarks 1) Each as score A x score B

[2] = system: Pseudomonas aeruginosa strain No. ho-134 corneal ulcer; test: Effects on pyocyanic corneal ulcer (inoculation of Pseudomonas aeruginosa into corneal stroma, corneal ulcer score); type: in vivo, rabbit; conditions: 50 μl four times a day
Method: Male Japanese albino rabbits each weighing about 2 kg purchased from KITAYAMA LABE S CO., LTD. were used. Each animal was maintained at a temperature of 23±3° C. and a humidity of 55±10%.
Compound A was given as a 1.0% Compound A eye drop formulation prepared by suspending Compound A in a formulation base (0.1% sodium acetate, 0.1% polysorbate 80 and 0.9% NaCl, pH 5.0). A 0.3% lomefloxacin (LFLX) hydrochloride was used as an. is antibacterial agent, and physiological saline *was used as a control.
After instilling 0.4% oxybuprocaine hydrochloride for a local anesthesia, a nictitating membrane was excised.
A causative microorganism used was a clinical isolate Pseudomonas aeruginosa strain No. ho-134. A rabbit was anesthetized systemically with 5% ketamine hydrochloride and 2% xylazine hydrochloride (equal volume mixture), and then inoculated by an infusion of 30 μl of a 3.9×10^4 CFU/ml cell suspension (1.17×10^3 CFU/cornea) using a 100 μl microsyringe fitted with a 30G needle into one corneal stroma of a rabbit.
An animal which had received an infusion of the cell suspension into the corneal stroma and whose inoculation was surely successful was grouped into one of [1] physiological saline instillation group (control, n=6) and [2]1.0% Compound A instillation group (Compound A group, n=6) as groups whose therapy was started immediately after the inoculation, and [3]1.0% Compound A instillation group (late Compound A group, n=5), [4]0.3% LFLX instillation group (LFLX group, n=6) and [5]1.0% Compound A instillation—0.3% LFLX instillation combination group (Compound A—LFLX combination group, n=6) as groups whose therapy was started 1 day after the inoculation (after onset of corneal ulcer), and 50 μl of each substance was given four times a day immediately after the inoculation or 1 day after the inoculation (after onset of corneal ulcer). […]
Each animal was examined for the corneal ulcer every 24 hours after the inoculation and scored in accordance with the rabbit corneal lesion scoring criteria (Barletta J. P. et al., Invest Ophthalmol Vis Sic 37:20-28, 1996) shown in Table 2. […]

[3] = system: Pseudomonas aeruginosa-derived endotoxin-induced keratitis; test: Effect on endotoxin-induced keratitis (rabbit keratitis model, slit lamp scoring); type: in vivo
Method: as §1, §2, §3
16 Male Japanese albino rabbits each weighing 2 to 2.5 kg were used. The rabbits were divided into four groups each having 4 animals, which were anesthetized systemically by an intramuscular administration each of 1 ml/kg of an equal volume mixture of 5% ketamine hydrochloride and 2% xylazine hydrochloride. Each 10 μl of a 1% solution of Pseudomonas aeruginosa-derived endotoxin in physiological saline was infused into each corneal stroma of a rabbit. An anterior part of an eye was observed using a slit lamp every 5 days over a period from the day after the endotoxin infusion through the 30th day, and examined for the corneal opacity, the corneal ulcer and the vascularization, which were scored in accordance with the criteria shown in Table 1. Each test substance was started to be instilled immediately after the endotoxin infusion, and then given 4 times a day in the volume of 20 μl every 2 hours.
as §4, §5, §6, §7

[4] = instillation started 1 day after the inoculation (after onset of corneal ulcer), vs physiological saline (FIG. 9)

SMILES | effect on corneal opacity ([1]; 5 to 30 days after corneal alkaline exposure, 1.0% eye drop, 4 times a day (FIG. 5)) | effect on vascularization ([1]; 5 to 30 days after corneal alkaline exposure, 1.0% eye drop, 4 times a day (FIG. 7)) | effect on corneal ulcer ([1]; 20th day after corneal alkaline exposure, 1.0% eye drop, 4 times a day (FIG. 6)) | corneal ulcer formation [2, 4] | corneal ulcer formation ([2]; instillation started immediately after the inoculation, vs physiological saline, statistically significant difference (FIG. 8)) | effect on corneal opacity ([3]; 5 to 30 days after endotoxin infusion, 1.0% eye drop, 4 times a day, vs control group (FIG. 1)) | effect on corneal ulcer ([3]; 5 to 30 days after endotoxin infusion, 1.0% eye drop, 4 times a day, vs control group (FIG. 2)) | effect on vascularization ([3]; 5 to 30 days after endotoxin infusion, 1.0% eye drop, 4 times a day, vs control group (FIG. 3)) | % inhibition of total keratitis score compared with the control group ([3]; 15th day after endotoxin infusion, 1.0% eye drop, 20 μl 4 times a day, statistically significant difference (FIG. 4)) | effect on vascularization ([1]; 15th day after corneal alkaline exposure, 0.1% eye drop, 4 times a day, positive control) | onset of the keratitis ([3]; over the observation period (5 to 30 days), 0.1% eye drop, 4 times a day, positive control)
CC(C)(C)C(=O)Oc1ccc(S(=O)(=O)Nc2ccccc2C(=O)NCC(=O)[O-])cc1.O.O.O.O.[Na+] [Compound A, N-[o-(p-pivaloyloxybenzenesulfonyl-amino)benzoyl]glycine monosodium salt tetrahydrate] | no effects were noted | no effects were noted | significant inhibitory effect | corneal ulcer formation was started to be inhibited 3 days after the inoculation | corneal ulcer formation was started to be inhibited 3 days after the inoculation | inhibitory effects were observed | inhibitory effects were observed | inhibitory effects were observed | 59.4% |  | 
CCn1cc(C(=O)O)c(=O)c2cc(F)c(N3CCNC(C)C3)c(F)c21 (stereo not drawn) [LFLX, lomefloxacin (LFLX) hydrochloride, reference compound] |  |  |  | no inhibition of the corneal ulcer formation |  |  |  |  |  |  | 
C[C@H]1C[C@H]2[C@@H]3CCC4=CC(=O)C=C[C@]4(C)[C@@]3(F)[C@@H](O)C[C@]2(C)[C@@]1(O)C(=O)COP(=O)(O)O [betamethasone phosphate, reference compound] |  |  |  |  |  |  |  |  |  | significant inhibitory effect | inhibited almost completely
